Measured values from patent US20220372014A1, “NEUROPROTECTIVE COMPOUNDS AND METHODS OF USE THEREOF” (The Johns Hopkins University, priority 2019, published 2022).

Legend:
MIF = biological target: T1, MIF (Homo sapiens, UniProt P14174); test: Nuclease assay of Example 3 (MIF inhibitory activity, Table 4); assay type: biochemical; parameters: (%) inhibition of MIF nuclease activity: concentration or dose not given beside the values; conditions: nuclease assay of Example 3
T1 sequence (P14174 1-115): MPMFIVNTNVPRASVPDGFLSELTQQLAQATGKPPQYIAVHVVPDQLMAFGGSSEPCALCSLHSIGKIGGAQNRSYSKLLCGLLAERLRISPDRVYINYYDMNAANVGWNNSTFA
Description: A rapafucin library was synthesized as described in WO2017/136708 and Guo et al. (2018) Nat. Chem. 11:254-63. The hybrid macrocyclic library consisted of 45,000 compounds in pools of 15 individual compounds. The library compounds were screened for MIF inhibitory activity using a nuclease assay as detailed in FIG. 1 and below.
Nuclease assay: Human genomic DNA (200 ng/reaction, Promega), pcDNA (200 ng/reaction) or PS^30 and its related and non-related substrates (1 μM) was incubated with wild type MIF or its variants at a final concentration of 0.25-8 μM as indicated in 10 mM Tris-HCl buffer (pH 7.0) containing 10 mM MgCl2 and 1 mM DTT or specific buffer as indicated, for 1 h (with pcDNA and small DNA substrates) or 4 h (with human genomic DNA) at 37° C. The reaction was terminated with loading buffer containing 10 mM EDTA and incubation on ice. The human genomic DNA samples were immediately separated on a 1.2% pulse field certified agarose in 0.5×TBE buffer with initial switch time of 1.5 s and a final switch time of 3.5 s for 12 h at 6 V/cm. pcDNA samples were determined by 1% agarose gel. Small DNA substrates were separated on 15% or 25% TBE-urea polyacrylamide (PAGE) gel or 20% TBE PAGE gel. Then gel was stained with 0.5 μg/ml Ethidium Bromide (EtBr) followed by electrophoretic transfer to nylon membrane. Then, Biotin-labeled DNA is further detected by chemiluminescence using Chemiluminescent Nucleic Acid Detection Module (Thermo Scientific).
Structure-activity relationship (SAR) analysis was then conducted on the compounds identified as having MIF inhibitory activity. Compounds having the structure of Formula (I) were then synthesized as shown in Example 1 and tested for MIF inhibitory activity using the nuclease assay described herein and neuronal protection via a cell death assay as detailed below.

[1] = tested on: HeLa cells or neuronal cells; test: Cell death assay of Example 3 (MNNG, alamarBlue; protection against parthanatos, Table 4); assay type: cell-based; conditions: 1 μM test compound, MNNG-induced cell death, alamarBlue
Description: Cell death assay: 200 μl of cells (HeLa cells or neuronal cells) culture (1×10^4 cells/well) were plated into the wells of a sterile 96-well cell culture plate. The cells were incubated for 18 hours at 37° C. The medium was removed and changed with 100 μl/well of 1 μM test compound. Incubate for 1 hours at 37° C. Ten μl of 500 μM MNNG (N-Methyl-N′-nitro-N-nitrosoguanidine) was added to each well. The medium was aspirated well and incubated for 15 min at 37° C. The cells were washed with the fresh medium. The medium was changed with 1 μM of test compound and incubated for 18 hours at 37° C. 10 μl/well of alamarBlue reagent was added directly to the well and incubated for 1 to 4 hours at 37° C. Fluorescence was measured using a fluorescence excitation wavelength of 560 nm and emission at 590 nm. The percentage of cell death was determined as the ratio of live to dead cells compared with the percentage of cell death in control wells to account for cell death attributed to mechanical stimulation of the cultures.

Compound | (%) inhibition of MIF nuclease activity (MIF) [%] | (%) inhibition of cell death [1] [%]
COc1ccc(CC[C@H]2OC(=O)[C@@H]3CCCCN3C(=O)C(=O)C(C)(C)COC(=O)C=CCCN(C)C(=O)[C@@H](Cc3ccccc3)NC(=O)[C@H](COC(C)(C)C)N(C)C(=O)C(c3ccccc3)NC(=O)CN(C)C(=O)COc3cccc2c3)cc1OC (some centres unmarked) [compound 39] | 31.1 | 57.5
COc1ccc(CC[C@H]2OC(=O)[C@@H]3CCCCN3C(=O)C(=O)C(C)(C)COC(=O)C=CCCN(C)C(=O)[C@H](Cc3ccc(F)cc3)NC(=O)[C@H](COC(C)(C)C)N(C)C(=O)C(c3ccccc3)NC(=O)CN(C)C(=O)COc3cccc2c3)cc1OC (some centres unmarked) [compound 40] | 37.4 | 53.8
COc1ccc(CC[C@H]2OC(=O)[C@@H]3CCCCN3C(=O)C(=O)C(C)(C)COC(=O)C=CCCN(C)C(=O)[C@H](CC3CCCCC3)NC(=O)[C@H](COC(C)(C)C)N(C)C(=O)C(c3ccccc3)NC(=O)CN(C)C(=O)COc3cccc2c3)cc1OC (some centres unmarked) [compound 42] | 40.8 | 53.2
COc1ccc(CC[C@H]2OC(=O)[C@@H]3CCCCN3C(=O)C(=O)C(C)(C)COC(=O)C=CCCN(C)C(=O)[C@H](Cc3ccc4ccccc4c3)NC(=O)[C@H](COC(C)(C)C)N(C)C(=O)C(c3ccccc3)NC(=O)CN(C)C(=O)COc3cccc2c3)cc1OC (some centres unmarked) [compound 43] | 45.6 | 54.8
COc1ccc(CC[C@H]2OC(=O)[C@@H]3CCCCN3C(=O)C(=O)C(C)(C)COC(=O)C=CCCN(C)C(=O)[C@H](C(C)C)NC(=O)[C@H](COC(C)(C)C)N(C)C(=O)C(c3ccccc3)NC(=O)CN(C)C(=O)COc3cccc2c3)cc1OC (some centres unmarked) [compound 44] | 30.0 | 52.2
COc1ccc(CC[C@H]2OC(=O)[C@@H]3CCCCN3C(=O)C(=O)C(C)(C)COC(=O)C=CCCN(C)C(=O)[C@H](c3ccccc3)NC(=O)[C@H](COC(C)(C)C)N(C)C(=O)C(c3ccccc3)NC(=O)CN(C)C(=O)COc3cccc2c3)cc1OC (some centres unmarked) [compound 45] | 15.4 | 51.9
COc1ccc(CC[C@H]2OC(=O)[C@@H]3CCCCN3C(=O)C(=O)C(C)(C)COC(=O)C=CCCN(C)C(=O)CNC(=O)[C@H](COC(C)(C)C)N(C)C(=O)C(c3ccccc3)NC(=O)[C@H](C)N(C)C(=O)COc3cccc2c3)cc1OC (some centres unmarked) [compound 46] | 21.7 | 52.5
COc1ccc(CC[C@H]2OC(=O)[C@@H]3CCCCN3C(=O)C(=O)C(C)(C)COC(=O)C=CCCN(C)C(=O)[C@H](C)NC(=O)[C@H](COC(C)(C)C)N(C)C(=O)C(c3ccccc3)NC(=O)[C@H](C)N(C)C(=O)COc3cccc2c3)cc1OC (some centres unmarked) [compound 47] | 52.3 | 54.2
COc1ccc(CC[C@H]2OC(=O)[C@@H]3CCCCN3C(=O)C(=O)C(C)(C)COC(=O)C=CCCN(C)C(=O)[C@@H](C)NC(=O)[C@H](COC(C)(C)C)N(C)C(=O)C(c3ccccc3)NC(=O)[C@H](C)N(C)C(=O)COc3cccc2c3)cc1OC (some centres unmarked) [compound 48] | 61.5 | 49.2
CCC[C@@H]1NC(=O)[C@H](COC(C)(C)C)N(C)C(=O)C(c2ccccc2)NC(=O)[C@H](C)N(C)C(=O)COc2cccc(c2)[C@@H](CCc2ccc(OC)c(OC)c2)OC(=O)[C@@H]2CCCCN2C(=O)C(=O)C(C)(C)COC(=O)C=CCCN(C)C1=O (some centres unmarked) [compound 49] | 14.7 | 60.0
